Source: US20170008888A1 (KYORIN PHARMACEUTICAL CO., LTD., priority 2014, published 2017)

Columns and labels:
[1] = molecular target: T1, ERK5 (Homo sapiens, UniProt Q13164); experiment: Probe-based (AX9989 acyl phosphate ATP probe) kinase profiling in Jurkat lysate: ERK5; format: binding; settings: for IC50: calculated from percent inhibition of AX9989 labeling and the screening concentration, Jurkat lysate; for inhibition at 1 µM: screening concentration 1.0 μM, read-out: Kinase inhibition % at indicated screening concentration: ERK5
T1 construct: screened for activity against several kinases in Jurkat cells; endogenous in cells; host or cells: Jurkat cell lysate
T1 sequence (Q13164 whole entry): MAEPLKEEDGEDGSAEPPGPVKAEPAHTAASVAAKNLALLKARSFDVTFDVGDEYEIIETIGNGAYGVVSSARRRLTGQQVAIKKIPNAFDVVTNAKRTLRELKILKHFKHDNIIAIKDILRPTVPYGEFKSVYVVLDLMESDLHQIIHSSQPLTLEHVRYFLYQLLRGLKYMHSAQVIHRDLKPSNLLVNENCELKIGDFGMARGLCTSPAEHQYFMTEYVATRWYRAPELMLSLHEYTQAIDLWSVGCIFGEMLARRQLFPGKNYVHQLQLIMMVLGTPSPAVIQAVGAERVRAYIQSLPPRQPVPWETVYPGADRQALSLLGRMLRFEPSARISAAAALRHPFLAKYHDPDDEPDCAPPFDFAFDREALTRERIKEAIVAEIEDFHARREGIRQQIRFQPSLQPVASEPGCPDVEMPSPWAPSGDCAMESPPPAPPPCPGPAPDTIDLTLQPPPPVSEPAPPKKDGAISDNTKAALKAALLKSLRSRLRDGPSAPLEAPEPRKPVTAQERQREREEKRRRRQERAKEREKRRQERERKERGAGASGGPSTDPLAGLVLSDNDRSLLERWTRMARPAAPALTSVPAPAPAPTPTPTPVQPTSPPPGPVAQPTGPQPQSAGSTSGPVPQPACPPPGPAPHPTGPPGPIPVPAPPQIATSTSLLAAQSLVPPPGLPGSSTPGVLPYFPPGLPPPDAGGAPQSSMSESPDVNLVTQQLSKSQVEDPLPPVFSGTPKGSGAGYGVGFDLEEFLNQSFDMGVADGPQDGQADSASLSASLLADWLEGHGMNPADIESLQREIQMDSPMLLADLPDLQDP
Summary of the method: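 Gel-filtered Jurkat lysate (5 mg/ml, 20 mM MnCl2) preincubated 15 min at room temperature with compound, then labelled with 5 μM AX9989 acyl phosphate ATP probe. Probe-labelled ERK5 active-site peptides quantified by LC/MS after trypsin digestion and streptavidin capture; IC50 calculated from percent inhibition at the screening concentration.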

[2] = molecular target: T2, AurA (Homo sapiens, UniProt O14965); experiment: Probe-based (AX9989) kinase profiling in Jurkat lysate: AurA; format: binding; settings: screening concentration 1.0 μM; read-out: Kinase inhibition % at indicated screening concentration: AurA
T2 construct: screened for activity against several kinases in Jurkat cells; endogenous in cells; host or cells: Jurkat cell lysate
T2 sequence (O14965 1-403): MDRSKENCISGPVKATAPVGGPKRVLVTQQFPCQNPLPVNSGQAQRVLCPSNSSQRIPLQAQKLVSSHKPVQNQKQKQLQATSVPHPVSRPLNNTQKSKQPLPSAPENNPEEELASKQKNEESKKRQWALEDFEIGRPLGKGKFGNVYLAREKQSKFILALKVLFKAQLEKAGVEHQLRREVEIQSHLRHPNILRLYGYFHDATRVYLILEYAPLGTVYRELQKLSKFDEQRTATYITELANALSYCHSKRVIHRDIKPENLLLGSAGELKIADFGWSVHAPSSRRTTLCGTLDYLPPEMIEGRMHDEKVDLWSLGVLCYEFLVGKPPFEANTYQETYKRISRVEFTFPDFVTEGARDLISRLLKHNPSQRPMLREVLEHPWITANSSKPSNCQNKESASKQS
Summary of the method: (§1)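 Gel-filtered Jurkat lysate (HEPES pH 7.5, 20 mM MnCl2, 5 mg/ml) was pre-incubated 15 min with compound at room temperature, then labelled with 5 μM acyl-phosphate ATP probe AX9989. Tryptic probe-labelled active-site peptides were streptavidin-captured and quantified by LC/MS. Percent inhibition reflected the decrease in labelled-peptide intensity versus no compound.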

[3] = test system: AurB or AurC; experiment: Probe-based (AX9989) kinase profiling in Jurkat lysate: AurB or AurC; format: binding; settings: screening concentration 1.0 μM
Summary of the method: as §1

[4] = molecular target: T3, JAK1 (Homo sapiens, UniProt P23458); experiment: Probe-based (AX9989) kinase profiling in Jurkat lysate: JAK1; format: binding; settings: screening concentration 1.0 μM; read-out: Kinase inhibition % at indicated screening concentration: JAK1
T3 construct: screened for activity against several kinases in Jurkat cells; endogenous in cells; host or cells: Jurkat cell lysate
T3 sequence (P23458 whole entry): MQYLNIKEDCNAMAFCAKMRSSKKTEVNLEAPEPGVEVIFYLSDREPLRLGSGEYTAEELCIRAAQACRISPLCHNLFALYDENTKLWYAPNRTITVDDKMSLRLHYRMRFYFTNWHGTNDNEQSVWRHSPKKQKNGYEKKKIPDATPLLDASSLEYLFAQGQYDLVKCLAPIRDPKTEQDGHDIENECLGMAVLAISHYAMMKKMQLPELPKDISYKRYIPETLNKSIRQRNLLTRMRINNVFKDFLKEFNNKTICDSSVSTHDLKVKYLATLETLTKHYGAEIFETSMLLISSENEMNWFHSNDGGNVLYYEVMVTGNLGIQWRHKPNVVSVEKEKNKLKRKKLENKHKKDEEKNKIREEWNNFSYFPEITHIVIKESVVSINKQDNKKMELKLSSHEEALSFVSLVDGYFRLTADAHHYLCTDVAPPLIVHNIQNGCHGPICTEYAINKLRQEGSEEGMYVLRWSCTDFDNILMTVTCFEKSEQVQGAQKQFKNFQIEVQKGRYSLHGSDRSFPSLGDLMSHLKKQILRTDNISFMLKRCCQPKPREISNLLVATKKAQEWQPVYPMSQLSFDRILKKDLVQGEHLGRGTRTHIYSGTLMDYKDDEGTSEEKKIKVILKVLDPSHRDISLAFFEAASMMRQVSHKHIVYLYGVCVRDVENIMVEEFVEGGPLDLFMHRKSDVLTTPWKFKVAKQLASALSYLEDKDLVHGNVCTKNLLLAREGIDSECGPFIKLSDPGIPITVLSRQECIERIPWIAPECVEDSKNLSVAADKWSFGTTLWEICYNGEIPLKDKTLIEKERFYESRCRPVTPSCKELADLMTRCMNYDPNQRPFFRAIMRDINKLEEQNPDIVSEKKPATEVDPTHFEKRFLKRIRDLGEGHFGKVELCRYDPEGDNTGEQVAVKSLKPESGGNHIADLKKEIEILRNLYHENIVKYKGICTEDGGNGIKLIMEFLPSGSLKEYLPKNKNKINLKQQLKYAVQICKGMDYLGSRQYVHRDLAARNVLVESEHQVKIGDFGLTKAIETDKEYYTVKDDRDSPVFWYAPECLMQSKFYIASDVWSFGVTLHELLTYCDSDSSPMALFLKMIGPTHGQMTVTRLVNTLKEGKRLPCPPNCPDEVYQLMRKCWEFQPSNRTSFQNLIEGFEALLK
Summary of the method: as §1

[5] = test system: AMPKa1 or AMPKa2; experiment: Probe-based (AX9989) kinase profiling in Jurkat lysate: AMPKa1 or AMPKa2; format: binding; settings: screening concentration 1.0 μM
Summary of the method: as §1

[6] = molecular target: T4, TAO2 (Homo sapiens, UniProt Q9UL54); experiment: Probe-based (AX9989) kinase profiling in Jurkat lysate: TAO2; format: binding; settings: screening concentration 1.0 μM; read-out: Kinase inhibition % at indicated screening concentration: TAO2
T4 construct: screened for activity against several kinases in Jurkat cells; endogenous in cells; host or cells: Jurkat cell lysate
T4 sequence (Q9UL54 1-1235): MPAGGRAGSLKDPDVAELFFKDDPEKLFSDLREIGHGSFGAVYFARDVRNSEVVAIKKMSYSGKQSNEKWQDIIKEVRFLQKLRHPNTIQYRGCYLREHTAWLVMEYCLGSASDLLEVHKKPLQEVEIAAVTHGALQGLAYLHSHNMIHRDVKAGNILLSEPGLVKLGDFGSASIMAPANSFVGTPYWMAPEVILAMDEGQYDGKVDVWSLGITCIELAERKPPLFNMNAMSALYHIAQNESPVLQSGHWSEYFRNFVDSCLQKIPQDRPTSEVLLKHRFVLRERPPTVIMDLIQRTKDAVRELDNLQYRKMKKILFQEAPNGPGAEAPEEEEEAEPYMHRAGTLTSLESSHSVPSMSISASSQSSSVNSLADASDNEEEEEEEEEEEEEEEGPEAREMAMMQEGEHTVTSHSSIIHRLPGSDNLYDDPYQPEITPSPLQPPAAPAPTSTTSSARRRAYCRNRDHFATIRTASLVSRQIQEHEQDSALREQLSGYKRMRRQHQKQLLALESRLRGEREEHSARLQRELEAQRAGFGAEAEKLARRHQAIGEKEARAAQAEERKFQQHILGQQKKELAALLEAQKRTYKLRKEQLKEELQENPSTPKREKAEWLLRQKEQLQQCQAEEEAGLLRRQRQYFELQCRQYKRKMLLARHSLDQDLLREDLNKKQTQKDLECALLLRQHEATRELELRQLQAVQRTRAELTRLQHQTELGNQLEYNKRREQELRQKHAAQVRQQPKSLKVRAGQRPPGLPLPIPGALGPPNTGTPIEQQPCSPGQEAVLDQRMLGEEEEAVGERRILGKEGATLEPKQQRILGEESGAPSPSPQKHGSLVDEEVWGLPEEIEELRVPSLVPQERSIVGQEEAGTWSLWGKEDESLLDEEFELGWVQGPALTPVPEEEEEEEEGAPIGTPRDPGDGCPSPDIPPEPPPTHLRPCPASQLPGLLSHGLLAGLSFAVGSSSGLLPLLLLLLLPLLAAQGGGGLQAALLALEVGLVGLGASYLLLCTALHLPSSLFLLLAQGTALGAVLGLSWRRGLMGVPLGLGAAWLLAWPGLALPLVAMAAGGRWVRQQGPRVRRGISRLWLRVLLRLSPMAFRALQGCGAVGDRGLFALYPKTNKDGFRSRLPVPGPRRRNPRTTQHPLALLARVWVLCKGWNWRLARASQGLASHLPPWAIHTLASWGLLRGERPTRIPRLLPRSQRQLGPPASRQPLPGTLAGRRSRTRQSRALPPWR
Summary of the method: as §1

[7] = molecular target: T5, ACK (Homo sapiens, UniProt Q07912); experiment: Probe-based (AX9989) kinase profiling in Jurkat lysate: ACK; format: binding; settings: screening concentration 1.0 μM; read-out: Kinase inhibition % at indicated screening concentration: ACK
T5 construct: screened for activity against several kinases in Jurkat cells; endogenous in cells; host or cells: Jurkat cell lysate
T5 sequence (Q07912 whole entry): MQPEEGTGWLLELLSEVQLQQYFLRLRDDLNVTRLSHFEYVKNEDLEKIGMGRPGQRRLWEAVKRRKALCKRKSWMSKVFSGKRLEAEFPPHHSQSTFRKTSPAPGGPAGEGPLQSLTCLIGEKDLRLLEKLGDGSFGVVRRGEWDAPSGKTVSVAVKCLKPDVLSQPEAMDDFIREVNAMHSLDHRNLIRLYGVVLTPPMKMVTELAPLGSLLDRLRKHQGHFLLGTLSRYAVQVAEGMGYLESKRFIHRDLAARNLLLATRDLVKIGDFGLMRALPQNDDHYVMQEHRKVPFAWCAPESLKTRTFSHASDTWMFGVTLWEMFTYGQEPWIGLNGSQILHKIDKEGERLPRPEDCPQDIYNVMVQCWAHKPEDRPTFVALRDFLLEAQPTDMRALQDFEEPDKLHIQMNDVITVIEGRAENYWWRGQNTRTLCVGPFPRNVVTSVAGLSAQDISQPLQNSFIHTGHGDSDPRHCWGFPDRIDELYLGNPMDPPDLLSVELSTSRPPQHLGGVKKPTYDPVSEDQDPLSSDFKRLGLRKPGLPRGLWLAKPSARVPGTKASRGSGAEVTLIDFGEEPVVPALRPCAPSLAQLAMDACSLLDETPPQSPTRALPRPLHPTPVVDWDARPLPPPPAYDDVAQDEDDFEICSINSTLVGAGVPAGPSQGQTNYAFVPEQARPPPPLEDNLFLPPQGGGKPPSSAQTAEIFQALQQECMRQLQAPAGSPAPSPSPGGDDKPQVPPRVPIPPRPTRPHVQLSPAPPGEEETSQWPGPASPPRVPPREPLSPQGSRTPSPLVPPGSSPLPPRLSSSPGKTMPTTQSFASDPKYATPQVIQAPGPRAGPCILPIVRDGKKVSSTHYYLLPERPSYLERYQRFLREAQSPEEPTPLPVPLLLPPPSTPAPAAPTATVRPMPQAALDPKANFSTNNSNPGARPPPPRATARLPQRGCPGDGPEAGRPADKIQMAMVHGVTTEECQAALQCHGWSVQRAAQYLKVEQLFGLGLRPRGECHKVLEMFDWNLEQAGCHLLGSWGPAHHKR
Summary of the method: as §1

[8] = test system: ABL or ARG; experiment: Probe-based (AX9989) kinase profiling in Jurkat lysate: ABL or ARG; format: binding; settings: screening concentration 1.0 μM
Summary of the method: as §1

[9] = molecular target: T6, BRD4 bromodomain domain I [BRD4(1)] (Homo sapiens, UniProt O60885); experiment: BRD4 bromodomain domain 1 inhibition assay (TR-FRET); format: binding; settings: for inhibition at 10 µM: screening concentration 10 μM
T6 construct: BRD4 bromodomain domain I [BRD4(1)]; purchased Cayman Chemicals
Experimental: The inhibitory activity of test compounds on the bromodomain, BRD4 bromodomain domain I [BRD4(1)], were determined via TR-FRET after a slight modification of the manufacturer's protocol (Cayman Chemicals, Ann Arbor, Mich.). Briefly, compounds were diluted to a 20× ([…]) concentration in DMSO. 100 nL of 20× compounds were then dry stamped into triplicate wells of black, low volume 384 well plates (Aurora Biotechnologies, Carlsbad, Calif.) using the Mosquito liquid handler (TPP Labtech, Melbourn, UK). 20× compounds were then diluted to a 4× (40 μM) concentration in Assay Buffer to result in 2% DMSO content. […] JQ1 at 10 μM or 0.5% DMSO final concentrations were used as the positive and negative controls, respectively, to set the assay window. The fluorescence was read in a time-resolved format on the Biotec Synergy 2 plate reader by exciting the signal at 340 nm and reading emissions at 620 and 670, using a 100 μs delay and 200 μs read window. […] Briefly, TR-FRET ratio values were normalized to the average TR-FRET ratio value given by 10 μM JQ1. […]

[10] = test system: human PBMCs; experiment: Human PBMC TNF-α response to endotoxin (ELISA); format: cell-based; settings: 0.1 μg/ml LPS 16 h, read-out: EC50 for the inhibition of the human PBMC TNF-α response to endotoxin, ave. ± S.D.
Summary of the method: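 PBMCs at 2e6 cells/ml in RPMI 1640 with 10% charcoal-dextran-treated FBS were pre-treated 1 h at 37 °C with compound (4-point 1:5 dilution from 10 μM). Stimulation with 0.1 μg/ml E. coli 0111:B4 LPS for 16 h; TNF-α measured by ELISA (A450) in 25-fold diluted supernatant.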

| IC50 [1] [nM] | inhibition at 1 µM [1] [%] | inhibition at 1 µM [2] [%] | Kinase inhibition % at indicated screening concentration: AurB or AurC [3] | inhibition at 1 µM [4] [%] | Kinase inhibition % at indicated screening concentration: AMPKa1 or AMPKa2 [5] | inhibition at 1 µM [6] [%] | inhibition at 1 µM [7] [%] | Kinase inhibition % at indicated screening concentration: ABL or ARG [8] | inhibition at 10 µM [9] [%] | IC50 [9] [nM] | SMILES | EC50 [10] [nM] |
| --- | --- | --- | --- | --- | --- | --- | --- | --- | --- | --- | --- | --- |
| ≤ 50 | > 90 | ≤ 35 | C (C is >50% to ≦75%) | 35 to 50 | E (E is ≦35%) | 50 to 75 | ≤ 35 | E (E is ≦35%) | 70 to 85 | – | CN1CCC(c2ccc(Nc3cc4c(cn3)N(C)C(=O)c3ccccc3N4C)cc2)CC1 [Compound 92] | – |
| – | – | – | – | – | – | – | – | – | > 85 | – | CCOc1cc(C(=O)N2CC[C@H](NC3CCN(C)CC3)C2)ccc1Nc1cc2c(cn1)N(C)C(=O)c1ccccc1N2C [Compound T61] | 420 |
| – | – | – | – | – | – | – | – | – | – | > 5000 | CN1C(=O)c2ccccc2S(=O)(=O)c2cc(N[C@H]3CC[C@H](O)CC3)ncc21 [Compound T127] | 4600 |
| > 500 | ≤ 35 | – | – | – | – | – | – | – | < 70 | – | CCOc1cc(C(=O)NC2CC2)ccc1Nc1cc2c(cn1)N(C)C(=O)c1ccccc1N2C [Compound 2] | – |
| > 500 | > 90 | ≤ 35 | E (E is ≦35%) | ≤ 35 | E (E is ≦35%) | ≤ 35 | ≤ 35 | E (E is ≦35%) | – | – | COc1cccnc1Nc1cc2c(cn1)N(C)C(=O)c1ccccc1N2C [Compound 14] | 2850 |
